Test results taken from patent US20210386738A1, “COMBINATION OF PRMT5 INHIBITORS AND BCL-2 INHIBITORS” (GLAXOSMITHKLINE INTELLECTUAL PROPERTY DEVELOPMENT LIMITED, priority 2018, published 2021).

System: lymphoma cell line OCI-LY3
Experiment: Standard 6-day growth-death assay, OCI-LY3
Assay type: cell-based
Settings: single agent or fixed 1:1 combination; for EC50 / IC50: Homo sapiens, 144 h; for EC50: average of n=2, read-out: dEC50; for IC50: average of n=2, read-out: gIC50; for Ymin-T0 / gIC100: average of n=2
Procedure: The majority cell lines were obtained from GSK BioCat group, American Type Culture Collection (ATCC), or the Deutsche Sammlung von Mikroorganismen and Zellbulturen (DSMZ). All cell lines were maintained in growth medium in T75 cm^2 flasks, incubated at 37° C. with 5% CO2 and split every 3 to 4 days. Growth media conditions and cell line information are detailed in Table 1. Cells were counted using the Vi-Cell Analyzer (Beckman Coulter ViCell) to obtain viable cell counts.
Optimal cell seeding density was determined for all cell lines by monitoring proliferation over a range of seeding densities in 384-well format and identifying the seeding density at which cells grew logarithmically throughout six days. 50 uL of cells per well were plated in 384-well plates at the optimal seeding density in preferred supplemented culture media. Three plates were prepared per cell line and incubated overnight at 37° C. in 5% CO2.
In these studies, lymphoma cell lines were treated with PRMT5 inhibitor, compound A and BCL-2 targeted inhibitor, ABT-199 single agent or in combination using a fixed 1:1 ratio of each inhibitor over a 20-point titration. For compound A single and fixed 1:1 ratio combination with ABT-199 cell proliferation assay, cells were treated in duplicate with a 20-point, two-fold dilution series of Compound A, ABT-199 (≥14 μM top dose) single or combo treatment, and ≤0.15% DMSO final concentration. Plates were incubated for six days at the conditions described above. Cell growth was measured using CellTiter-Glo (Promega) and luminescence signal was detected with a BioTek Synergy Neo microplate reader. A plate of untreated cells was read at the time of compound/biologic addition to determine the T0 value representing the starting number of cells. Data were fit with a four-parameter equation to generate a concentration response curve using Assay Client software.
Results were background corrected by subtraction of values from wells containing no cells, expressed as a percentage of the T0 value (value at time=0), and plotted against compound concentration. The T0 value was normalized to 100% and represents the number of cells present at the time of compound addition. The cellular response was determined for each compound using a 4- or 6-parameter curve fit of cell viability against concentration using Assay Client software. Growth IC50 (gIC50) values correspond to the concentration intersecting the mid-point of the growth window (between DMSO and T0 values). Growth IC100 (gIC100) values correspond to the concentration at which 100% growth inhibition is achieved, based on the growth window. The Ymin−T0 value, a measure of net population cell growth or death, is calculated by subtracting the T0 value (100%) from the Ymin value (%) that is determined from the fit of the concentration response curve. Death EC50 (dEC50) values correspond to the concentration at which 50% net cell death is observed.
Individual curves were quality checked for three criteria: outlier data points, cell growth (population doubling ≥1.5), and proper curve fitting. […] Individual curves were QC checked for outlier data points, cell growth (population doubling ≥1.5), and proper curve fitting. Obvious outlier data points were omitted only as needed to ensure proper curve fit.
For fixed ratio screening, combination activity was assessed by the fold change in gIC50 compared to the 2 single agent curves by dividing the compound ratio as necessary. Combinations showing >3-fold and >5-fold change from single agent are described as below: • Fold changes ≥5 are considered to represent strong synergy. • Fold changes between 3.0 and 4.9 are considered to represent weak synergy. • Fold changes <3 are considered to represent no synergy.

Compound	EC50 [µM]	IC50 [µM]	Ymin-T0 [%]	gIC100 [µM]
CC1(C)CCC(CN2CCN(c3ccc(C(=O)NS(=O)(=O)c4ccc(NCC5CCOCC5)c([N+](=O)[O-])c4)c(Oc4cnc5[nH]ccc5c4)c3)CC2)=C(c2ccc(Cl)cc2)C1 [ABT-199, venetoclax, reference compound]	7.51	1.47	−76	7.157
O=C(NC[C@H](O)CN1CCc2ccccc2C1)c1ccnc(NC2CCC2)c1 [Compound A]	> 14.7	1.96	488	14.663
